# Experimental data: PMC5218480 (PLoS ONE, 2017)
# Test system: MV-4-11 cells
# Assay: Gene expression microarray analysis (Affymetrix PrimeView) and GSEA
# Assay type: cell-based, human
# Parameters: RFU PODN (11730768_x_at) / Fold change /veh PODN (11730768_x_at) / RFU LINC00158 (11744669_a_at) / Fold change /veh LINC00158 (11744669_a_at) / RFU DUSP10 (11751237_a_at) / Fold change /veh DUSP10 (11751237_a_at) / RFU ID3 (11757404_x_at) / Fold change /veh ID3 (11757404_x_at) / RFU PLEKHG5 (11737974_s_at) / Fold change /veh PLEKHG5 (11737974_s_at) / RFU LRRC4B (11730491_at) / Fold change /veh LRRC4B (11730491_at) / RFU GIMAP4 (11747438_a_at) / Fold change /veh GIMAP4 (11747438_a_at) / RFU KRT8 (11758183_x_at) / Fold change /veh KRT8 (11758183_x_at) / RFU CNN1 (11734310_a_at) / Fold change /veh CNN1 (11734310_a_at) / RFU VPS37D (11726825_at) / Fold change /veh VPS37D (11726825_at) / RFU C10orf10 (11716522_x_at) / Fold change /veh C10orf10 (11716522_x_at) / RFU KIR2DL2 /// KIR2DL4 /// KIR2DL5A /// KIR2DL5B /// KIR2DS1 /// KIR2DS2 /// KIR2DS3 /// KIR2DS4 /// KIR3DL3 /// KIR3DL3 /// KIR3DS1 (11738374_at) / Fold change /veh KIR2DL2 /// KIR2DL4 /// KIR2DL5A /// KIR2DL5B /// KIR2DS1 /// KIR2DS2 /// KIR2DS3 /// KIR2DS4 /// KIR3DL3 /// KIR3DL3 /// KIR3DS1 (11738374_at) / RFU C1QL1 (11718748_at) / Fold change /veh C1QL1 (11718748_at) / RFU TMPRSS4 (11747572_a_at) / Fold change /veh TMPRSS4 (11747572_a_at) / RFU HAMP (11756126_x_at) / Fold change /veh HAMP (11756126_x_at) / RFU RNFT2 (11725882_a_at) / Fold change /veh RNFT2 (11725882_a_at) / RFU NR4A2 (11747474_a_at) / Fold change /veh NR4A2 (11747474_a_at) / RFU ABCC12 (11746883_a_at) / Fold change /veh ABCC12 (11746883_a_at) / RFU TMEM136 (11760407_x_at) / Fold change /veh TMEM136 (11760407_x_at) / RFU CLDN22 /// WWC2 (11732394_at) / Fold change /veh CLDN22 /// WWC2 (11732394_at) / RFU HLA-DPB1 (11760878_x_at) / Fold change /veh HLA-DPB1 (11760878_x_at) / RFU SPINT1 (11716480_a_at) / Fold change /veh SPINT1 (11716480_a_at) / RFU GAP43 (11754022_s_at) / Fold change /veh GAP43 (11754022_s_at) / RFU A4GNT (11735810_at) / Fold change /veh A4GNT (11735810_at) / RFU PRB3 (11715151_x_at) / Fold change /veh PRB3 (11715151_x_at) / RFU TUBB4B (11761932_at) / Fold change /veh TUBB4B (11761932_at) / RFU CAPN14 (11732068_a_at) / Fold change /veh CAPN14 (11732068_a_at) / RFU TMCC2 (11721928_a_at) / Fold change /veh TMCC2 (11721928_a_at) / RFU IRGQ (11745062_a_at) / Fold change /veh IRGQ (11745062_a_at) / RFU FAM174B (11720279_a_at) / Fold change /veh FAM174B (11720279_a_at) / RFU TMPRSS4 (11748680_a_at) / Fold change /veh TMPRSS4 (11748680_a_at) / RFU FAM212B (11763350_a_at) / Fold change /veh FAM212B (11763350_a_at) / RFU PLEKHG5 (11743358_a_at) / Fold change /veh PLEKHG5 (11743358_a_at) / RFU ZSCAN30 (11745921_a_at) / Fold change /veh ZSCAN30 (11745921_a_at) / RFU CMKLR1 (11741424_a_at) / Fold change /veh CMKLR1 (11741424_a_at) / RFU LOC101060620 /// MAPK8IP1 (11723275_at) / Fold change /veh LOC101060620 /// MAPK8IP1 (11723275_at) / RFU SPTSSB (11747773_x_at) / Fold change /veh SPTSSB (11747773_x_at) / RFU PRSS12 (11739890_at) / Fold change /veh PRSS12 (11739890_at) / RFU BIN1 (11741810_x_at) / Fold change /veh BIN1 (11741810_x_at) / RFU WNT11 (11732464_a_at) / Fold change /veh WNT11 (11732464_a_at) / RFU C10orf10 (11716521_a_at) / Fold change /veh C10orf10 (11716521_a_at) / RFU C5orf56 (11738089_at) / Fold change /veh C5orf56 (11738089_at) / RFU CYB561 (11721691_x_at) / Fold change /veh CYB561 (11721691_x_at) / RFU ANKRD19P (11752326_a_at) / Fold change /veh ANKRD19P (11752326_a_at) / RFU OR2T12 /// OR2T33 /// OR2T8 (11738714_s_at) / Fold change /veh OR2T12 /// OR2T33 /// OR2T8 (11738714_s_at) / RFU VCAN (11748164_a_at) / Fold change /veh VCAN (11748164_a_at) / RFU JSRP1 (11732532_at) / Fold change /veh JSRP1 (11732532_at) / RFU KRTAP10-11 (11738290_x_at) / Fold change /veh KRTAP10-11 (11738290_x_at) / RFU MYO3A (11730013_a_at) / Fold change /veh MYO3A (11730013_a_at) / RFU EBF3 (11725865_a_at) / Fold change /veh EBF3 (11725865_a_at) / RFU CAMK2N1 (11719241_x_at) / Fold change /veh CAMK2N1 (11719241_x_at) / RFU C5orf56 (11738088_a_at) / Fold change /veh C5orf56 (11738088_a_at) / RFU OLFML3 (11715873_a_at) / Fold change /veh OLFML3 (11715873_a_at) / RFU LOC100653217 /// NTM (11731650_a_at) / Fold change /veh LOC100653217 /// NTM (11731650_a_at) / RFU MAPK11 (11762145_a_at) / Fold change /veh MAPK11 (11762145_a_at) / RFU FIZ1 (11724087_x_at) / Fold change /veh FIZ1 (11724087_x_at) / RFU OASL (11726364_x_at) / Fold change /veh OASL (11726364_x_at) / RFU SOX15 (11748057_x_at) / Fold change /veh SOX15 (11748057_x_at) / RFU CD79A (11719716_a_at) / Fold change /veh CD79A (11719716_a_at) / RFU HIST1H1D (11736915_at) / Fold change /veh HIST1H1D (11736915_at) / RFU CASKIN2 (11723855_a_at) / Fold change /veh CASKIN2 (11723855_a_at) / RFU LOC730098 (11760151_x_at) / Fold change /veh LOC730098 (11760151_x_at) / RFU OR4N2 (11742367_at) / Fold change /veh OR4N2 (11742367_at) / RFU PRRT2 (11749266_a_at) / Fold change /veh PRRT2 (11749266_a_at) / RFU SNX32 (11753110_a_at) / Fold change /veh SNX32 (11753110_a_at) / RFU CDHR5 (11726645_a_at) / Fold change /veh CDHR5 (11726645_a_at) / RFU RCAN1 (11760418_a_at) / Fold change /veh RCAN1 (11760418_a_at) / RFU FAM167A (11723789_a_at) / Fold change /veh FAM167A (11723789_a_at) / RFU FAM26E (11764081_at) / Fold change /veh FAM26E (11764081_at) / RFU ISYNA1 (11749810_s_at) / Fold change /veh ISYNA1 (11749810_s_at) / RFU ACY1 (11761880_at) / Fold change /veh ACY1 (11761880_at) / RFU 11764098_at / Fold change /veh 11764098_at / RFU SAMD14 (11745864_x_at) / Fold change /veh SAMD14 (11745864_x_at) / RFU NPB (11741838_a_at) / Fold change /veh NPB (11741838_a_at) / RFU TMPRSS6 (11731388_a_at) / Fold change /veh TMPRSS6 (11731388_a_at) / RFU KRTAP10-2 (11738614_at) / Fold change /veh KRTAP10-2 (11738614_at) / RFU ARHGAP8 /// PRR5-ARHGAP8 (11727945_x_at) / Fold change /veh ARHGAP8 /// PRR5-ARHGAP8 (11727945_x_at) / RFU KRTAP5-7 /// NADSYN1 (11734609_at) / Fold change /veh KRTAP5-7 /// NADSYN1 (11734609_at) / RFU RASL12 (11751679_a_at) / Fold change /veh RASL12 (11751679_a_at) / RFU CDKN2B (11736163_a_at) / Fold change /veh CDKN2B (11736163_a_at) / RFU PRF1 (11729649_at) / Fold change /veh PRF1 (11729649_at) / RFU, ZNF638 /// ZNF638-IT1 / Fold change vs veh, ZNF638 /// ZNF638-IT1 / RFU, PANK3 / Fold change vs veh, PANK3 / RFU, SH3YL1 / Fold change vs veh, SH3YL1 / RFU, ZEB2 / Fold change vs veh, ZEB2 / RFU, NRIP1 / Fold change vs veh, NRIP1 / RFU, PTTG1IP / Fold change vs veh, PTTG1IP / RFU, CAPN2 / Fold change vs veh, CAPN2 / RFU, MED14 / Fold change vs veh, MED14 / RFU, SNORA58 / Fold change vs veh, SNORA58 / RFU, C1orf63 / Fold change vs veh, C1orf63 / RFU, LRRFIP1 / Fold change vs veh, LRRFIP1 / RFU, NDUFAF7 / Fold change vs veh, NDUFAF7 / RFU, SLC12A2 / Fold change vs veh, SLC12A2 / RFU, IBTK / Fold change vs veh, IBTK / RFU, ESF1 / Fold change vs veh, ESF1 / Fold change vs veh, TMEM50B / RFU, TAOK1 / Fold change vs veh, TAOK1 / RFU, ACBD3 / Fold change vs veh, ACBD3 / RFU, TMA16 / Fold change vs veh, TMA16 / RFU, RWDD3 / Fold change vs veh, RWDD3 / RFU, BCAT1 / Fold change vs veh, BCAT1 / RFU, EDEM3 / Fold change vs veh, EDEM3 / RFU, TMEM33 / Fold change vs veh, TMEM33 / RFU, WDR75 / Fold change vs veh, WDR75 / RFU, AHCTF1 / Fold change vs veh, AHCTF1 / RFU, TFRC / Fold change vs veh, TFRC / RFU, ZDHHC17 / Fold change vs veh, ZDHHC17 / RFU, NOM1 / Fold change vs veh, NOM1 / RFU, ARL8B / Fold change vs veh, ARL8B / RFU, ZBTB11 / Fold change vs veh, ZBTB11 / RFU, TAMM41 / Fold change vs veh, TAMM41 / RFU, KIAA1704 /// LOC100996395 / Fold change vs veh, KIAA1704 /// LOC100996395 / RFU, ING1 / Fold change vs veh, ING1 / RFU, TRMT61B / Fold change vs veh, TRMT61B / RFU, FUBP3 / Fold change vs veh, FUBP3 / RFU, TP53 / Fold change vs veh, TP53 / RFU, TNKS2 / Fold change vs veh, TNKS2 / RFU, ZFP14 / Fold change vs veh, ZFP14 / RFU, ACTR2 / Fold change vs veh, ACTR2 / RFU, PPP3R1 / Fold change vs veh, PPP3R1 / RFU, PIK3R1 / Fold change vs veh, PIK3R1 / RFU, HNRNPA1 / Fold change vs veh, HNRNPA1 / RFU, RNF170 / Fold change vs veh, RNF170 / RFU, ZNF28 / Fold change vs veh, ZNF28 / RFU, RNGTT / Fold change vs veh, RNGTT / RFU, OGT / Fold change vs veh, OGT / RFU, BRD1 / Fold change vs veh, BRD1 / RFU, MARS / Fold change vs veh, MARS / RFU, ZNF655 / Fold change vs veh, ZNF655 / RFU, FAHD1 / Fold change vs veh, FAHD1 / RFU, BDP1 / Fold change vs veh, BDP1 / RFU, LRRCC1 / Fold change vs veh, LRRCC1 / RFU, ARID1A / Fold change vs veh, ARID1A / RFU, ZNF146 / Fold change vs veh, ZNF146 / RFU, ZNF330 / Fold change vs veh, ZNF330 / RFU, GPN3 / Fold change vs veh, GPN3 / RFU, C9orf123 / Fold change vs veh, C9orf123 / RFU, N4BP2L2 / Fold change vs veh, N4BP2L2 / RFU, ARFIP1 / Fold change vs veh, ARFIP1 / RFU, FAM179B / Fold change vs veh, FAM179B / RFU, BCL10 / Fold change vs veh, BCL10 / RFU, UHRF1BP1L / Fold change vs veh, UHRF1BP1L / RFU, BET1 / Fold change vs veh, BET1 / RFU, CNOT2 / Fold change vs veh, CNOT2 / RFU, ZNF268 / Fold change vs veh, ZNF268 / Fold change vs veh, ZNF507 / RFU, DGCR2 / Fold change vs veh, DGCR2 / RFU, WDSUB1 / Fold change vs veh, WDSUB1 / Fold change vs veh, HSP90B1 /// MIR3652 / RFU, ADSS / Fold change vs veh, ADSS / RFU, GK / Fold change vs veh, GK / RFU, ZNF148 / Fold change vs veh, ZNF148 / RFU, TAF9 / Fold change vs veh, TAF9 / RFU, SLC1A5 / Fold change vs veh, SLC1A5 / RFU, SLMO2 / Fold change vs veh, SLMO2 / RFU, ABCC4 / Fold change vs veh, ABCC4 / RFU, LOC101060439 /// RAP1B / Fold change vs veh, LOC101060439 /// RAP1B / RFU, RFX7 / Fold change vs veh, RFX7 / RFU, GTPBP10 / Fold change vs veh, GTPBP10 / RFU, CNEP1R1 / Fold change vs veh, CNEP1R1 / RFU, BIVM-ERCC5 /// ERCC5 / Fold change vs veh, BIVM-ERCC5 /// ERCC5 / RFU, ILF3 / Fold change vs veh, ILF3 / RFU 11762660_at / Fold change /veh 11762660_at / RFU VCAN (11757783_s_at) / Fold change /veh VCAN (11757783_s_at) / RFU DDX43 (11728927_at) / Fold change /veh DDX43 (11728927_at) / RFU KRT8 (11758188_x_at) / Fold change /veh KRT8 (11758188_x_at) / RFU NKD1 (11759106_at) / Fold change /veh NKD1 (11759106_at) / RFU SRD5A1 (11742802_a_at) / Fold change /veh SRD5A1 (11742802_a_at) / RFU TPSAB1 /// TPSB2 (11721975_s_at) / Fold change /veh TPSAB1 /// TPSB2 (11721975_s_at) / RFU GSTM3 (11746129_a_at) / Fold change /veh GSTM3 (11746129_a_at) / RFU IL23R (11737362_x_at) / Fold change /veh IL23R (11737362_x_at) / RFU TMEM51 (11727254_a_at) / Fold change /veh TMEM51 (11727254_a_at) / RFU PIWIL2 (11732686_x_at) / Fold change /veh PIWIL2 (11732686_x_at) / RFU ORM1 (11744905_x_at) / Fold change /veh ORM1 (11744905_x_at) / RFU CCDC152 (11743942_at) / Fold change /veh CCDC152 (11743942_at) / RFU ECM1 (11717891_a_at) / Fold change /veh ECM1 (11717891_a_at) / RFU IL23R (11748794_a_at) / Fold change /veh IL23R (11748794_a_at) / RFU TNFAIP8L3 (11732012_x_at) / Fold change /veh TNFAIP8L3 (11732012_x_at) / RFU MBOAT4 (11741988_at) / Fold change /veh MBOAT4 (11741988_at) / RFU 11764193_at / Fold change /veh 11764193_at / RFU TMEM53 (11763286_at) / Fold change /veh TMEM53 (11763286_at) / RFU MAGEB2 (11727129_at) / Fold change /veh MAGEB2 (11727129_at) / RFU TMEM200A (11744735_a_at) / Fold change /veh TMEM200A (11744735_a_at) / RFU CCDC152 (11751479_a_at) / Fold change /veh CCDC152 (11751479_a_at) / RFU FAM211A (11726209_a_at) / Fold change /veh FAM211A (11726209_a_at) / RFU RGS16 (11746705_a_at) / Fold change /veh RGS16 (11746705_a_at) / RFU VCAN (11755009_s_at) / Fold change /veh VCAN (11755009_s_at) / RFU RHOB (11743442_s_at) / Fold change /veh RHOB (11743442_s_at) / RFU RGS16 (11720943_a_at) / Fold change /veh RGS16 (11720943_a_at) / RFU RGS16 (11720944_at) / Fold change /veh RGS16 (11720944_at) / RFU, VPS4B / Fold change vs veh, VPS4B / RFU, CREB1 / Fold change vs veh, CREB1 / RFU, DNAJC13 / Fold change vs veh, DNAJC13 / RFU, GNAQ / Fold change vs veh, GNAQ / RFU, CDK5R1 / Fold change vs veh, CDK5R1 / RFU, ZRANB3 / Fold change vs veh, ZRANB3 / RFU, CUL4A / Fold change vs veh, CUL4A / RFU, CCNY / Fold change vs veh, CCNY / RFU, UFL1 / Fold change vs veh, UFL1 / RFU, COG3 / Fold change vs veh, COG3 / RFU, DIAPH2 / Fold change vs veh, DIAPH2 / RFU, SKA2 / Fold change vs veh, SKA2 / RFU, AFF3 / Fold change vs veh, AFF3 / RFU, LMF1 / Fold change vs veh, LMF1 / RFU, IPO11 / Fold change vs veh, IPO11 / RFU, DFFB / Fold change vs veh, DFFB / RFU, FOXP1 / Fold change vs veh, FOXP1 / RFU, CARD8 / Fold change vs veh, CARD8 / RFU, STRN3 / Fold change vs veh, STRN3 / RFU, ADK / Fold change vs veh, ADK / RFU, RASSF2 / Fold change vs veh, RASSF2 / RFU, WIPF1 / Fold change vs veh, WIPF1 / RFU, LARP1B / Fold change vs veh, LARP1B / RFU, RASA1 / Fold change vs veh, RASA1 / RFU, RB1 / Fold change vs veh, RB1 / RFU, PPFIA1 / Fold change vs veh, PPFIA1 / RFU, MAT2A / Fold change vs veh, MAT2A / RFU, CCT5 / Fold change vs veh, CCT5 / RFU, WDR92 / Fold change vs veh, WDR92 / RFU, CUX1 / Fold change vs veh, CUX1 / RFU, TTC7A / Fold change vs veh, TTC7A / RFU, TMEM135 / Fold change vs veh, TMEM135 / RFU, DEPTOR / Fold change vs veh, DEPTOR / RFU, CPM / Fold change vs veh, CPM / RFU, DNAJB6 / Fold change vs veh, DNAJB6 / RFU, CACNA2D3 / Fold change vs veh, CACNA2D3 / RFU, DTX4 / Fold change vs veh, DTX4 / RFU, TFCP2 / Fold change vs veh, TFCP2 / RFU, GMCL1 /// GMCL1P1 / Fold change vs veh, GMCL1 /// GMCL1P1 / RFU, AEBP2 / Fold change vs veh, AEBP2 / RFU, SNHG1 /// SNORD22 /// SNORD25 /// SNORD26 /// SNORD27 /// SNORD28 /// SNORD29 /// SNORD31 / Fold change vs veh, SNHG1 /// SNORD22 /// SNORD25 /// SNORD26 /// SNORD27 /// SNORD28 /// SNORD29 /// SNORD31 / Fold change (Aza/veh), C12orf56 (ProbeSet 11735607_a_at) / Fold change (ACY-1035/veh), C12orf56 (ProbeSet 11735607_a_at) / Fold change (Aza/veh), FGFR1OP (ProbeSet 11751329_s_at) / Fold change (ACY-1035/veh), FGFR1OP (ProbeSet 11751329_s_at) / Fold change (Aza/veh), VPS36 (ProbeSet 11739960_a_at) / Fold change (ACY-1035/veh), VPS36 (ProbeSet 11739960_a_at) / RFU SYPL1 (11715823_x_at) / Fold change /veh SYPL1 (11715823_x_at) / RFU IGFBP7 (11715501_s_at) / Fold change /veh IGFBP7 (11715501_s_at) / RFU REEP3 (11722064_at) / Fold change /veh REEP3 (11722064_at) / RFU IGLL1 (11728026_x_at) / Fold change /veh IGLL1 (11728026_x_at): dose or concentration left out as unconfirmed
# Settings: ProbeSet 11716931_at; LIST B
smiles,measurement,value
Nc1ncn([C@@H]2O[C@H](CO)[C@@H](O)[C@H]2O)c(=O)n1 [azacitidine],"RFU, DGCR2",177.81 RFU
